In patent US5698535A, “SIN-1A cyclodextrin inclusion complexes” (priority 1994, dated 1997):
Where two headings read alike, the source gives them in different places. Each block holds one compound with its values, some of them ahead of it.

Legend:
[1] = prior art; cited from earlier work
[2] = system: rabbit platelet rich plasma; experiment: Inhibition of U-46619 induced platelet aggregation in rabbit platelet rich plasma; type: cell-based
Experimental: (§1) The platelet aggregation was studied in rabbit and human platelet rich plasma (J. Cardiovasc. Pharmacol. 14 suppl. 11; page 120, 1989). In each batch of platelet rich rabbit plasma 8 dose response curves were registered with the thromboxane mimetic U-46619 (0.25-4.0 μM) in the presence of 0, 10^-7, 10^-6 or 10^-5 moles of SIN-1A/βCD complex. The dose response curves were performed in random sequence.

[3] = system: human platelet rich plasma; experiment: Inhibition of U46619 induced platelet aggregation in human citrate platelet rich plasma; type: cell-based
Experimental: as §1
Both amplitude and slope of the aggregation curve were evaluated.

[4] = known; SIN-1 in solid state, SIN-1A open-chain tautomer; cited from earlier work

SMILES: CCN(CC)N(O)N=O [DEANO, diethylamine-nitric oxide adduct]
- half-life [1]: about 2 minutes

SMILES: NCCCNCCCCN(CCCN)N(O)N=O [SPNO]
- half-life [1]: 39 min

- IC50 ([2]; Oryctolagus cuniculus, rabbit platelet rich plasma, U46619 4 μM, n=7, read-out: pD2 (negative logarithm of concentration producing 50% inhibition) (converted)): 2690 nM
- IC50 ([3]; Table 4, amplitude of aggregation curve, read-out: pD2, 50% inhibition of aggregation, amplitude (converted)): 15.8 µM
- IC50 ([3]; Table 4, slope of aggregation curve, read-out: pD2, 50% inhibition of aggregation, slope (converted)): 14.1 µM
SMILES: N=c1c[n+](N2CCOCC2)[n-]o1 [SIN-1, 3-morpholino-sydnonimine]

SMILES: CCCCCC(O)/C=C/C1C2CC(CO2)C1C/C=C\CCCC(=O)O (stereo not shown) [U46619]
- induction of platelet aggregation ([2]; thromboxane mimetic): concentration-related aggregation

SMILES: N#CCN(N=O)N1CCOCC1 [SIN-1A, N-morpholino-N-nitrosoaminoacetonitrile]
- stability [4]: extremely unstable
